Results reported in ChEMBL document CHEMBL1201862, “PubChem BioAssay data set” (2004).
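Exposure lasted 48 hours, with cells grown in 96-well plates and compounds tested at five concentrations. At the GI50, growth is halved.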 The source made the active and inactive calls. No stated cut-off is given here; in the data, active = GI50 up to about 1.1 µM and inactive = higher.

What was measured:
Experiment in all cases: NCI-60 cell line screen, 48 h
786-0 = tested on: 786-0
A498 = tested on: A498
A549 = tested on: A549
HL-60 = tested on: HL-60
HOP-62 = tested on: HOP-62
HOP-92 = tested on: HOP-92
Hs-578T = tested on: Hs-578T
LOX IMVI = tested on: LOX IMVI
MDA-MB-231 = tested on: MDA-MB-231
MDA-MB-435 = tested on: MDA-MB-435
Malme-3M = tested on: Malme-3M
OVCAR-3 = tested on: OVCAR-3
RPMI-8226 = tested on: RPMI-8226
RXF 393 = tested on: RXF 393
SF-268 = tested on: SF-268
SK-MEL-28 = tested on: SK-MEL-28
SN12C = tested on: SN12C
T47D = tested on: T47D
UACC-257 = tested on: UACC-257
SNB-75 = tested on: SNB-75

Measured: GI50

COC(=O)/C=C(/C(=O)OC)c1c(C)c(C)c2c(C)cc(C)cc(C)c1-2
inactive: 786-0 > 100 µM | A498 97.9 µM | A549 20.6 µM | HL-60 > 100 µM | HOP-62 23 µM | HOP-92 21.2 µM | Hs-578T 8.99 µM | LOX IMVI 28.7 µM | MDA-MB-231 18.1 µM | MDA-MB-435 4.6 µM | Malme-3M 28.4 µM | OVCAR-3 22.1 µM | RPMI-8226 > 100 µM | RXF 393 26.9 µM | SF-268 > 100 µM | SK-MEL-28 33.1 µM | SN12C 38.8 µM | T47D 80.9 µM | UACC-257 22 µM

COC(=O)C(CCCCN)NC(C)=O.Cc1ccc(C(=O)Nc2ccc(S(=O)(=O)O)c3cc(S(=O)(=O)O)cc(S(=O)(=O)O)c23)cc1NC(=O)c1cccc(NC(=O)Nc2cccc(C(=O)Nc3cc(C(=O)Nc4ccc(S(=O)(=O)O)c5cc(S(=O)(=O)O)cc(S(=O)(=O)O)c45)ccc3C)c2)c1
inactive: 786-0 > 50 µM | A498 > 50 µM | A549 > 50 µM | HL-60 > 50 µM | HOP-92 > 50 µM | Hs-578T > 50 µM | LOX IMVI 44.8 µM | MDA-MB-231 > 50 µM | MDA-MB-435 > 50 µM | OVCAR-3 > 50 µM | RPMI-8226 > 50 µM | RXF 393 37.4 µM | SF-268 > 50 µM | SK-MEL-28 > 50 µM | SN12C > 50 µM | SNB-75 > 50 µM | T47D > 50 µM | UACC-257 > 50 µM

CC1OC(O)C(O)C(O)C1O (configuration not stated)
inactive: 786-0 > 100 µM | A498 > 100 µM | A549 > 100 µM | HOP-62 > 100 µM | HOP-92 > 100 µM | Hs-578T > 100 µM | LOX IMVI > 100 µM | MDA-MB-231 > 100 µM | MDA-MB-435 > 100 µM | Malme-3M > 100 µM | OVCAR-3 > 100 µM | RPMI-8226 > 100 µM | RXF 393 > 100 µM | SF-268 > 100 µM | SK-MEL-28 > 100 µM | SN12C > 100 µM | SNB-75 > 100 µM | T47D > 100 µM | UACC-257 > 100 µM

CS(=O)(=O)N(CC(=O)O)Cc1ccccc1
inactive: 786-0 > 100 µM | A498 > 100 µM | A549 > 100 µM | HOP-62 > 100 µM | HOP-92 > 100 µM | Hs-578T > 100 µM | LOX IMVI > 100 µM | MDA-MB-231 > 100 µM | MDA-MB-435 > 100 µM | Malme-3M > 100 µM | OVCAR-3 > 100 µM | RPMI-8226 > 100 µM | RXF 393 > 100 µM | SF-268 > 100 µM | SK-MEL-28 > 100 µM | SN12C > 100 µM | SNB-75 > 100 µM | T47D > 100 µM | UACC-257 > 100 µM

O=CC(O)C(O)C(O)C(O)C(=O)NCCCCCCCCCCCCNC(=O)C(O)C(O)C(O)C(O)C=O (configuration not stated)
inactive: 786-0 > 100 µM | A498 > 100 µM | A549 > 100 µM | HL-60 > 100 µM | HOP-62 > 100 µM | HOP-92 > 100 µM | Hs-578T > 100 µM | LOX IMVI > 100 µM | MDA-MB-231 > 100 µM | MDA-MB-435 > 100 µM | Malme-3M > 100 µM | OVCAR-3 > 100 µM | RXF 393 > 100 µM | SF-268 > 100 µM | SK-MEL-28 > 100 µM | T47D > 100 µM | UACC-257 > 100 µM
